According to patent US20120202756A1, “USE OF PRODRUGS TO AVOID GI MEDIATED ADVERSE EVENTS” (priority 2009, published 2012):
≈ marks a conversion by molar mass, not a printed value. Like-named read-outs stand apart in the source and are kept apart here.

Columns and labels:
[1] = Stability in simulated intestinal juice (FeSSIF); assay type: in vitro ADME; settings: FeSSIF pH 5.0, pancreatin 1%
Procedure: (§1) To avoid direct interaction between the active drug and the gut microfloral population, the prodrug should not undergo premature chemical or enzymic cleavage back to the parent dug while within the gut lumen. To confirm this the prodrugs were incubated with USP SGF (simulated gastric fluid), FeSSIF (fed state simulated intestinal fluid) and FaSSIF (fasted state simulated intestinal fluid) and remaining prodrug and any generated active drug assayed by use of a qualified LC-MS/MS analytical method.
Pancreatin was again added at 1%.
(§2) To minimize the direct inhibitory action of this drug on gastric emptying/gut motility—and resultant nausea—the prodrug should not undergo premature chemical or enzymic cleavage back to the parent drug while within the gut lumen. To confirm this, the prodrugs were incubated with USP SGF (simulated gastric fluid), FeSSIF (fed state simulated intestinal fluid) and FaSSIF (fasted state simulated intestinal fluid) and remaining prodrug, and any generated active drug, assayed by use of a qualified LC-MS/MS analytical method.
as §1, with “gut,” for “gut microfloral population,”

[2] = Stability in USP simulated gastric juice; assay type: in vitro ADME; settings: USP SGF pH 1.1, pepsin […], prodrug 20 μg/mL
Excerpt: To minimize the direct inhibitory action of this drug on gastric emptying/gut motility—and resultant nausea—the prodrug should not undergo premature chemical or enzymic cleavage back to the parent drug while within the gut lumen.

[3] = Stability in simulated intestinal juice (FaSSIF); assay type: in vitro ADME; settings: FaSSIF pH 6.5, pancreatin 1%, prodrug 20 μg/mL
Procedure: as §1
(§3) Method—Prodrug (20 μg/mL) in the FaSSIF cocktail comprising sodium taurocholate 3 mM, lecithin 0.75 mM, NaOH 8.7 mM, NaH2PO4. H2O 28.7 mM, NaCl 106 mM, pancreatin 1% (overall pH 6.5) was incubated for 2 h at 37° C. After acidifying the incubation to stop any reaction the amount of prodrug remaining and drug generated were determined using a qualified LC-MS/MS method.
as §2
as §3, with “Prodrug” for “Method—Prodrug”
as §1, with “gut,” for “gut microfloral population,”

[4] = male rats; for Frel: relative bioavailability of donepezil vs dosing donepezil itself, mean
Procedure: Serial tail vein blood samples were subsequently collected via an indwelling cannuala into EDTA tubes containing a stabilising cocktail (including 6 mg/mL NaF) to prevent post collection enzymic hydrolysis of the prodrug.

Clostridium sporogenes = assay: MIC agar dilution; assay type: cell-based; settings: ATCC3584, ATCC 3584
Clostridium difficile = assay: MIC agar dilution; assay type: cell-based; settings: Clostridioides difficile
[5] = system: Peptostreptococcus anaerobius; assay: MIC agar dilution; assay type: cell-based; settings: NCTC11460
Bacteroides fragilis = assay: MIC agar dilution
Prevotella bivia = assay: MIC agar dilution; assay type: cell-based; settings: ATCC29303, ATCC 29303
Helicobacter pylori = assay: MIC agar dilution
Clostridium perfringens = assay: microbe, parasite or virus in culture; assay type: cell-based
Veillonella spp. = assay: MIC agar dilution; assay type: cell-based; settings: clinical isolate
Clostridium bifermentans = assay: MIC agar dilution; assay type: cell-based; settings: Paraclostridium bifermentans, ATCC638
Veillonella parvula = assay: MIC agar dilution; assay type: cell-based; settings: NCTC11810
Propionibacterium acnes = assay: MIC agar dilution
Clostridium sordellii = assay: MIC agar dilution; assay type: cell-based; settings: Paraclostridium sordellii, NCTC13356; NCTC 13356
[6] = system: Peptostreptococcus magnus; assay: MIC agar dilution; assay type: cell-based; settings: Finegoldia magna; clinical isolate
[7] = system: Peptostreptococcus micros; assay: MIC agar dilution; assay type: cell-based; settings: Parvimonas micra; clinical isolate
[8] = system: Porphyromonas endodontalis; assay: MIC agar dilution; assay type: cell-based; settings: clinical isolate
Eggerthella lenta = assay: MIC agar dilution; assay type: cell-based; settings: ATCC43055, ATCC 43055
[9] = system: Bifidobacterium adolescentis; assay: MIC agar dilution; assay type: cell-based; settings: NCTC11814
[10] = system: Porphyromonas assacharolyticus; assay: MIC agar dilution; assay type: cell-based; settings: clinical isolate
[11] = system: Fusobacterium necrophorum; assay: MIC agar dilution; assay type: cell-based; settings: clinical isolate
[12] = Bioavailability of metronidazole from its prodrugs in the rat; settings: male, Sprague Dawley, rat, in vivo, po
Procedure: In order to confirm successful absorption and subsequent hydrolysis of these metronidazole prodrugs, a comparative bioavailability study was undertaken in the rat Methods—Three groups of five male Sprague Dawley rats were orally dosed with either metronidazole itself or its succinyl valine or glutaryl para-amino benzoic acid ester prodrugs. Serial tail vein blood samples were subsequently collected via an indwelling cannuala into EDTA tubes containing a stabilising cocktail (including 6 mg/mL NaF) to prevent post collection enzymic hydrolysis of the prodrug. Separated plasma samples were subjected to bioanalysis for both the prodrugs and metronidazole itself using a qualified LC/MS-MS bioanalytical method.

Campylobacter coli = assay: MIC agar dilution
Clostridium novyi = assay: MIC agar dilution; assay type: cell-based; settings: ATCC19402
Bifidobacterium dentium = assay: MIC agar dilution; assay type: cell-based; settings: NCTC11816
Campylobacter jejuni = assay: MIC agar dilution
Bifidobacterium longum = assay: MIC agar dilution; assay type: cell-based; settings: NCTC11818
Veillonella atypical = assay: MIC agar dilution; assay type: cell-based; settings: NCTC11830
[13] = system: Bacteroides thetaiotamicron; assay: MIC agar dilution; assay type: cell-based
Prevotella denticola = assay: MIC agar dilution; assay type: cell-based; settings: clinical isolate
hNav1.1 channel = target: T1, hNav1.1 channel (Homo sapiens, UniProt P35498); assay: Blockade of cloned Nav1.1 channels expressed in mammalian cells; assay type: cell-based
T1 construct: expressed in transfected cells
Procedure: Blockade of hNav1.1 channel was measured using a stimulus voltage pattern shown in the diagram below: Voltage potentials are indicated in Table 13. The pulse pattern was repeated twice: before and 5 minutes after TA addition and peak current amplitudes at three test pulses were measured (ITP1, TP11 and ITP12).
Data acquisition and analyses was performed using the lonWorks Quattro™ system operation software (version 2.0.2; Molecular Devices Corporation, Union City, Calif.). Data was corrected for leak current.
The tonic block was calculated as:
% Block (Tonic)=(1−ITP1,TA/ITP1,Control)×100%,
10 Hz Block—the frequency-dependent block at stimulation frequency 10 Hz was calculated as:
% Block (10 Hz)=(1−ITP11, TA/ITP11, Control))×100%,
We define the inactivation state block as decrease in test pulse (TP12) current amplitude due to the conditioning depolarizing pulse (TP11). The inactivation state block was calculated as:
% Block (inactivation state)=(1−(ITP12, TA/[…])×100%,
Concentration-response data for the blocks were fit to an equation of the following form: […]
where [Test] is the concentration of test article, IC50 is the concentration of the test article producing half-maximal inhibition, N is the Hill coefficient, and % Block is the percentage of ion channel current inhibited at each concentration of the test article. Nonlinear least squares fits were solved with the Solver add-in for Excel 2000 (Microsoft, Redmond, Wash.).

[14] = % of treated patients, cited from earlier work
[15] = frequency-dependent block at 10 Hz (TP11), read-out: IC50 10 Hz block
[16] = inactivation state block (TP12), read-out: IC50 Inactivated state
[17] = tonic block (TP1), read-out: IC50 Tonic block

CCOC(=O)c1ccc(NC(=O)CCCC(=O)OC2=C(CC3CCN(Cc4ccccc4)CC3)Cc3cc(OC)c(OC)cc32)cc1 [Donepezil glutaryl PABA ethyl ester, donepezil[glutaryl-PABA ethyl ester]enol ester]
Simulated intestinal juice (2 h, 37° C.) (FeSSIF) % active drug generated [1]: 1%
Simulated gastric juice (1 h, 37° C.) % active drug generated [2]: 2%
Simulated intestinal juice (2 h, 37° C.) (FaSSIF) % active drug generated [3]: 2%
Prodrug plasma levels ([4]; oral): undetectable
Frel [4]: 30%

CCOC(=O)[C@@H](NC(=O)CCCC(=O)OC1=C(CC2CCN(Cc3ccccc3)CC2)Cc2cc(OC)c(OC)cc21)C(C)C [Donepezil glutaryl valine ethyl ester, donepezil[glutaryl-(S)-valineethyl ester]enol ester]
Simulated intestinal juice (2 h, 37° C.) (FeSSIF) % active drug generated [1]: 3%
Simulated gastric juice (1 h, 37° C.) % active drug generated [2]: 2%
Simulated intestinal juice (2 h, 37° C.) (FaSSIF) % active drug generated [3]: 11%
plasma persistence of donepezil ([4]; oral): not in evidence
Frel [4]: 31%

Cc1ncc([N+](=O)[O-])n1CCOC(=O)CCCC(=O)Nc1ccc(C(=O)O)cc1 [Metronidazole glutaryl PABA ester, Metronidazole-(glutaryl-PABA) ester]
MIC (Clostridium sporogenes): 8 µg/mL (≈ 19.8 µM)
MIC (Clostridium difficile; ATCC700057, ATCC 700057): 8 µg/mL (≈ 19.8 µM)
MIC (Clostridium difficile; NCTC13366, NCTC 13366 - NAP1/027): 16 µg/mL (≈ 39.6 µM)
MIC (Clostridium difficile; antibiotic-susceptible clinical isolate): 8 µg/mL (≈ 19.8 µM)
MIC [5]: 16 µg/mL (≈ 39.6 µM)
MIC (Bacteroides fragilis): > 64 µg/mL
MIC (Bacteroides fragilis; ATCC25285): > 64 µg/mL
MIC (Prevotella bivia): 32 µg/mL (≈ 79.1 µM)
MIC (Helicobacter pylori; clinical isolate (first listed, r83)): 32 µg/mL (≈ 79.1 µM)
MIC (Helicobacter pylori; clinical isolate (second listed, r85)): 16 µg/mL (≈ 39.6 µM)
MIC (Clostridium perfringens): > 64 µg/mL
MIC (Clostridium perfringens; ATCC13124): > 64 µg/mL
MIC (Veillonella spp.): > 64 µg/mL
MIC (Clostridium bifermentans): 64 µg/mL (≈ 158 µM)
MIC (Veillonella parvula): > 64 µg/mL
MIC (Propionibacterium acnes; Cutibacterium acnes): > 64 µg/mL
MIC (Propionibacterium acnes; clinical isolate MIC clindamycin 0.5 mg/L): >64 µg/mL
MIC (Clostridium sordellii): 64 µg/mL (≈ 158 µM)
MIC [6]: 16 µg/mL (≈ 39.6 µM)
MIC [7]: 8 µg/mL (≈ 19.8 µM)
MIC [8]: 4 µg/mL (≈ 9.89 µM)
MIC (Eggerthella lenta): 32 µg/mL (≈ 79.1 µM)
MIC [9]: > 64 µg/mL
MIC [10]: 8 µg/mL (≈ 19.8 µM)
MIC [11]: 8 µg/mL (≈ 19.8 µM)
Tmax [12]: 2.0 h
MIC (Campylobacter coli): > 64 µg/mL
MIC (Campylobacter coli; ATCC33559): 64 µg/mL (≈ 158 µM)
MIC (Clostridium novyi): 32 µg/mL (≈ 79.1 µM)
MIC (Bifidobacterium dentium): > 64 µg/mL
MIC (Campylobacter jejuni): > 64 µg/mL
MIC (Campylobacter jejuni; ATCC33560): 64 µg/mL (≈ 158 µM)
MIC (Bifidobacterium longum): > 64 µg/mL
MIC (Veillonella atypical): > 64 µg/mL
MIC ([13]; ATCC29741): > 64 µg/mL
MIC ([13]; NCTC10582): > 64 µg/mL
MIC (Prevotella denticola): 64 µg/mL (≈ 158 µM)

CCCNCC(COc1ccccc1C(=O)CCc1ccccc1)OC(=O)CCCC(=O)Nc1ccc(C(=O)O)cc1 (stereo not drawn) [Propafenone glutaryl PABA ester, Propafenone (glutaryl-PABA) ester]
IC50 (hNav1.1 channel; [15]): 96.3 µM
IC50 (hNav1.1 channel; [16]): 32.2 µM
IC50 (hNav1.1 channel; [17]): 464 µM

CCCNCC(COc1ccccc1C(=O)CCc1ccccc1)OC(=O)CCC(=O)N[C@H](C(=O)O)C(C)C (stereo partly drawn) [Propafenone succinyl valine ester, Propafenone[succinyl-(S)-valine]ester]
IC50 (hNav1.1 channel; [15]): 69.5 µM
IC50 (hNav1.1 channel; [16]): 37.2 µM
IC50 (hNav1.1 channel; [17]): 151 µM

Cc1cn([C@H]2C=C[C@@H](CO)O2)c(=O)[nH]c1=O [Stavudine]
incidence of diarrhoea [14]: 44%
incidence of nausea and vomiting [14]: 39-44%

CC(C)CN(C[C@@H](O)[C@H](Cc1ccccc1)NC(=O)O[C@H]1CCOC1)S(=O)(=O)c1ccc(N)cc1 [amprenavir]
incidence of diarrhoea [14]: 39%
incidence of nausea [14]: 74%
incidence of vomiting [14]: 34%

C#Cc1cccc(Nc2ncnc3cc(OCCOC)c(OCCOC)cc23)c1 [erlotinib]
incidence of diarrhoea [14]: 50-60%

CCCCN1C[C@H](O)[C@@H](O)[C@H](O)[C@H]1CO [miglustat]
incidence of diarrhoea [14]: up to 89%

Cc1ccc(Nc2nccc(N(C)c3ccc4c(C)n(C)nc4c3)n2)cc1S(N)(=O)=O [pazopanib]
incidence of diarrhoea [14]: ~50%
incidence of diarrhoea ([14]; listed as pazapanib): > 50%

COc1ccc(C(CN(C)C)C2(O)CCCCC2)cc1 (stereo not drawn) [venlefaxine, venlafaxine]
incidence of nausea [14]: Up to 30%
